Measured values taken from ChEMBL document CHEMBL1147550, “Capped dipeptide phenethylamide inhibitors of the HCV NS3 protease” (Bioorg Med Chem Lett, 2004).

Biological target: Genome polyprotein (Hepatitis C virus genotype 1a (isolate 1) (HCV), UniProt P26664)
Assay: Inhibition of Hepatitis C virus NS3 protease in vitro.

Sequence of Genome polyprotein (P26664 1027-1657 limits assumed): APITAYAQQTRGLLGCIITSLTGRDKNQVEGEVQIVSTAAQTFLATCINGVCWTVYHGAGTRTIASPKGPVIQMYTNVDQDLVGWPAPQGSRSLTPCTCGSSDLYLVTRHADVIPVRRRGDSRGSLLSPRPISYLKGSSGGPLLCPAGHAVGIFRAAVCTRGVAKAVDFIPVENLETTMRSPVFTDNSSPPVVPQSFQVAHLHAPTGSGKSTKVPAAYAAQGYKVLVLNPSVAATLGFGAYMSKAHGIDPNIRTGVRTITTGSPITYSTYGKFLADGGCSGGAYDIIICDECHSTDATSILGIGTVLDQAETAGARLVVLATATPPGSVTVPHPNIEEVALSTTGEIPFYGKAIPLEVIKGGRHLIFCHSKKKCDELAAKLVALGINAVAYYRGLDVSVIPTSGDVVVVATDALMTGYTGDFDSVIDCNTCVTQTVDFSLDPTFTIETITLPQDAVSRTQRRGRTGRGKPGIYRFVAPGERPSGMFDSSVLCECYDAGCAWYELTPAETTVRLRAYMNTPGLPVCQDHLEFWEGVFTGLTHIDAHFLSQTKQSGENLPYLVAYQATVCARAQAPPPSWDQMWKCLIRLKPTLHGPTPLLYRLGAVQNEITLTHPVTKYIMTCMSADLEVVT

Structure (SMILES)	IC50
CC(C)[C@H](O)C(=O)N1C[C@H](c2ccccc2)C[C@H]1C(=O)N[C@@H](CC(F)F)C(=O)NCCc1c(F)cc(C(=O)O)cc1F	18 µM
O=C(O)c1cc(F)c(CCNC(=O)[C@H](CC(F)F)NC(=O)[C@@H]2C[C@@H](c3ccccc3)CN2C(=O)CC2CCCC2)c(F)c1	34 µM
O=C(O)c1cc(F)c(CCNC(=O)[C@H](CC(F)F)NC(=O)[C@@H]2C[C@@H](c3ccccc3)CN2C(=O)C(O)C2CC2)c(F)c1 (stereo partly specified)	> 100 µM
CCC(CC)C(O)C(=O)N1C[C@H](c2ccccc2)C[C@H]1C(=O)N[C@@H](CC(F)F)C(=O)NCCc1c(F)cc(C(=O)O)cc1F (stereo partly specified)	50 µM
O=C(O)c1cc(F)c(CCNC(=O)[C@H](CC(F)F)NC(=O)[C@@H]2C[C@@H](c3ccccc3)CN2C(=O)[C@@H](O)c2ccccc2)c(F)c1	> 100 µM
CC(C)[C@H](O)C(=O)N1C[C@H](OC2CCCCC2)C[C@H]1C(=O)N[C@@H](CC(F)F)C(=O)NCCc1c(F)cc(C(=O)O)cc1F	32 µM
CC(C)[C@H](O)C(=O)N1C[C@H](OCc2ccc(Br)cc2)C[C@H]1C(=O)N[C@@H](CC(F)F)C(=O)NCCc1c(F)cc(C(=O)O)cc1F	12 µM
O=C(O)c1cc(F)c(CCNC(=O)[C@H](CC(F)F)NC(=O)[C@@H]2C[C@@H](c3ccccc3)CN2C(=O)[C@H](O)C2CCCC2)c(F)c1	62 µM
O=C(O)c1cc(F)c(CCNC(=O)[C@H](CC(F)F)NC(=O)[C@@H]2C[C@@H](c3ccccc3)CN2C(=O)[C@@H](O)C2CCCC2)c(F)c1	13 µM
O=C(O)c1cc(F)c(CCNC(=O)[C@H](CC(F)F)NC(=O)[C@@H]2C[C@@H](c3ccccc3)CN2C(=O)[C@H](O)c2ccccc2)c(F)c1	> 100 µM
CC(C)[C@H](O)C(=O)N1C[C@H](OCc2ccccc2Cl)C[C@H]1C(=O)N[C@@H](CC(F)F)C(=O)NCCc1c(F)cc(C(=O)O)cc1F	> 100 µM
O=C(O)c1cc(F)c(CCNC(=O)[C@H](CC(F)F)NC(=O)[C@@H]2C[C@@H](c3ccccc3)CN2C(=O)C(O)Cc2ccccc2)c(F)c1 (stereo partly specified)	> 100 µM
CC(C)COC(=O)N[C@H](C(=O)N1C[C@H](c2ccccc2)C[C@H]1C(=O)N[C@@H](CC(F)F)C(=O)NCCc1c(F)cc(C(=O)O)cc1F)C(C)C	0.9 µM
CC(C)COC(=O)N[C@H](C(=O)N[C@@H](CC(C)C)C(=O)N[C@@H](CC(F)F)C(=O)NCCc1ccc(C(=O)O)cc1Cl)C(C)C	2.4 µM
O=C(O)c1cc(F)c(CCNC(=O)[C@H](CC(F)F)NC(=O)[C@@H]2C[C@@H](c3ccccc3)CN2C(=O)[C@@H](O)C2CCCCC2)c(F)c1	14 µM
CC(C)(C)[C@H](O)C(=O)N1C[C@H](c2ccccc2)C[C@H]1C(=O)N[C@@H](CC(F)F)C(=O)NCCc1c(F)cc(C(=O)O)cc1F	18 µM
CC(C)[C@@H](O)C(=O)N1C[C@H](c2ccccc2)C[C@H]1C(=O)N[C@@H](CC(F)F)C(=O)NCCc1c(F)cc(C(=O)O)cc1F	> 100 µM
CC(C)C[C@H](NC(=O)[C@H](O)c1ccccc1)C(=O)N[C@@H](CC(F)F)C(=O)C(=O)O	3 µM
CC(C)[C@H](O)C(=O)N1C[C@H](OCCCc2ccccc2)C[C@H]1C(=O)N[C@@H](CC(F)F)C(=O)NCCc1c(F)cc(C(=O)O)cc1F	11 µM
CC(C)CC(=O)N1C[C@H](c2ccccc2)C[C@H]1C(=O)N[C@@H](CC(F)F)C(=O)NCCc1c(F)cc(C(=O)O)cc1F	58 µM
CC(C)[C@H](O)C(=O)N1C[C@H](OCc2ccccc2)C[C@H]1C(=O)N[C@@H](CC(F)F)C(=O)NCCc1c(F)cc(C(=O)O)cc1F	27 µM
